Laboratory results taken from patent US9593069B2, “Cyclohexane-1,3-diones for use in the treatment of amyotrophic lateral sclerosis” (Northwestern University, priority 2009, dated 2017).
Converted amounts (≈) assume the structure as drawn. Where two headings read alike, the source gives them in different places. Peptide text beside a SMILES is read from it. * marks the point of attachment. Cbz = O=C(OCc1ccccc1)*

How the values were obtained:
[1] = tested on: PC12 cells that express mutant G93A SOD1; assay: High throughput cytotoxicity protection assay (PC12 Protection Assay); type: cell-based
Source text: Cultured cells are utilized to conduct high throughput assays for compounds that protect against mutant SOD1-induced cytotoxicity. Two assays are used: first, in the cytotoxicity protection assay, compounds are screened for their ability to protect cells from the cytotoxic effects of aggregated mutant SOD1, irrespective of mechanism of drug action. Second, in the protein aggregation assay, compounds are screened for their ability to reduce aggregation of mutant SOD1. The high throughput cytotoxicity protection assay is the primary screen and compounds active in the primary screen (and their analogs) move forward into the secondary screen for protein aggregation.
(§1) The high throughput cytotoxicity protection assay was carried out in PC12 cells that express mutant G93A SOD1 as a YFP fusion protein from a doxycycline-inducible promoter (Matsumoto et al., J. Cell. Biol. 2005, 171, 75). […] This idea was tested by examining the sensitivity of PC12 cells to SOD1 aggregates in the presence and absence of proteasome inhibitor MG132. PC12 cells expressing no SOD1, wild type SOD1, G85R SOD1 or G93A SOD1 were grown with or without MG132 (FIG. 1). Cells expressing no SOD1, wild type SOD1 and G85R SOD1 were relatively insensitive to MG132, with an IC50 of approximately 400 nM. […] In these cells, protein aggregation was detected after 24 h and loss of cell viability was detected at approximately 48 h. […] The ability of protein aggregates to induce cell death was examined by treating G93A SOD1-expressing cells with MG132 for 24 h, removing the MG132 by washing and assaying cell viability after another 24 h. Because the loss of cell viability was similar following MG132 removal (FIG. 1, part C), it is likely that mutant SOD1 aggregates contribute directly to cytotoxicity in PC12 cells.
(§2) PC12 cells expressing G93A SOD1 were treated with 100 nM MG132 with or without co-treatment with geldanamycin or radicicol. […] Statistical analysis of the data produced a Z′ value of 0.55, which would predict good performance as a positive control in a high throughput screen (Zhang et al., J. Biomol. Screen 1999, 4(2), 67-73).

[2] = tested on: primary cortical neurons; assay: Neuronal penetration assay (protection from MG132 toxicity); type: cell-based; settings: for Different from control at 5 SD*: primary cortical neurons, toxic dose of MG132, 5 SD = Standard Deviation (5σ)
Experimental: Neurons are a highly differentiated cell type, and it has been commonly observed that many chemical structures are unable to penetrate into these cells. In many embodiments, a drug used to treat a neurodegenerative disease should desirably penetrate into neurons.
A neuronal penetration assay was developed as follows. […] In order to determine if this compound could protect primary cortical neurons from MG132 toxicity primary cortical neurons were treated with a toxic dose of MG132 together with various concentrations of 5-(3,5-bis(trifluoromethyl)phenyl)cyclohexane-1,3-dione. […] Analogs of 5-(3,5-bis(trifluoromethyl)phenyl)cyclohexane-1,3-dione were then prepared and tested to determine whether chemical modifications would lead to a compound with neuronal cell penetrating ability. […] As summarized in Table 2 below, these analogs also retained protective activity against mutant SOD1 toxicity.

[3] = In vivo pharmacological properties
[4] = tested on: PC12 cells expressing G85R SOD1; assay: Mutant SOD1 direct protein aggregation assay; type: cell-based
Source text: Compounds that are active in the above assay could theoretically protect against mutant SOD1-induced cytotoxicity through a number of mechanisms, including the following: 1) Compounds could nonspecifically block or reverse protein aggregation via chaperone induction, as observed for radicicol and geldanamycin 2) Compounds could block or reverse the aggregation of a specific aggregated protein form 3) Compounds could interfere with an event downstream of protein aggregation that plays a critical role in mutant SOD1-induced cytotoxicity (e.g., proteasome function). 4) Compounds could act directly on SOD1 in a manner that prevents mutant SOD1 aggregation. These possibilities were tested using an assay that directly measures protein aggregation. In addition, unlike the high throughput cytotoxicity protection assay, the protein aggregation assay is based on G85R SOD1; this broadens the scope of the screening strategy, and should eliminate compounds with highly specific activity (i.e., G93A SOD1 limited) against protein aggregation.
(§3) In PC12 cells that express wild-type SOD1, SOD1 was diffusely localized throughout the cell (Matsumoto et al., J. Cell. Biol 2005, 171(1), 75-85). […] Therefore, these effects are likely to be due to MG132-induced proteasome inhibition, and not due to an off-target effect of MG132.
(§4) The identification of a positive control is a crucial step in assay development. Thus, PC12 cells expressing G85R or G93A mutant SOD1 were treated with MG132 to induce protein aggregation, and then co-treated with candidate chemical suppressors of protein aggregation. […] Both compounds induce heat shock transcription factor HSF-1, which in turn induces the heat shock response (FIG. 4). Treatment with radicicol reduced the proportion of cells with aggregates from 75% to 25%, a sufficient difference to allow visual scoring for compounds with efficacy equal to or greater than radicicol.
To allow this assay to be used in a high-throughput manner, a Cellomics Arrayscan® high content microscopy system was used for screening and quantification. […]

[5] = tested on: PC12 cells expressing G93A SOD1; assay: MG132 sensitivity, cell survival by viability stain calcein-AM; type: cell-based; settings: for toxicity (cell survival): 100 nM
Experimental: (§5) FIGS. 1A-C. Proteasome inhibition is selectively toxic to PC12 cells expressing mutant G93A SOD1. Cell survival was determined using the viability stain calcein-AM.
as §1

[6] = tested on: PC12 cells expressing no SOD1, wild type SOD1 and G85R SOD1; assay: as above; type: cell-based; settings: Rattus norvegicus, PC-12, read-out: IC50 (loss of cell viability)
Experimental: as §5, §1

[7] = tested on: PC12 cells expressing G93A mutant SOD1; assay: Mutant SOD1 direct protein aggregation assay; type: cell-based
Experimental: as §2, §3, §4

[8] = tested on: PC12 cells expressing wild-type SOD1; assay: Mutant SOD1 direct protein aggregation assay; type: cell-based
Source text: as §3

[9] = Plasma stability; type: in vitro ADME
Experimental: Plasma stability of active compounds is assessed in efficacy species (mouse), toxicity species (rat, dog, monkey), and human cells.

[10] = Solubility; type: physicochemical; settings: aqueous solution
Experimental: Because compounds are stored in DMSO, it is necessary to determine aqueous solubility of initial hit compounds and their analogs. High solubility in aqueous solution is necessary for high GI absorption, bioavailability, and for chemical formulation. Compounds should be soluble in aqueous solution at >10 μg/ml. Solubility of >50 μg/ml is preferred.

[11] = Mouse metabolic potential; type: in vitro ADME
Experimental: (§6) Liver Cytochrome P450 (CYP450) enzymes are the major route for xenobiotic metabolism and microsomal and hepatocyte stability is the best predictor of pharmacokinetic half-life. Cross-species comparisons of metabolism in liver microsomes can predict potential issues with liver toxicity in humans. Selected active compounds are tested in liver microsomes from efficacy species (mouse), toxicity species (rat, dog, monkey), and humans for metabolic stability.

[12] = tested on: Caco-2; assay: Caco-2 permeability; type: in vitro ADME
Experimental: High membrane permeability is required for effective GI absorption and optimal bioavailability. Passive permeability is typically assessed in the PAMPA artificial membrane assay (Kansy et al., J. Med. Chem. 2002, 45(8), 1712-1722). Cell-based permeability determinations using the Caco-2 cell assay are more resource intensive but more predictive of active transport or efflux in vivo (Artursson et al., Adv. Drug. Deliv. Rev. 2001, 46(1-3), 27-43). Caco-2 assays are performed as needed during SAR development.

[13] = Human metabolic potential; type: in vitro ADME
Experimental: as §6

[14] = Rattus norvegicus, PC-12; read-out: PC12 Protection Assay (Average EC50)

**Q.** Which EC50 [1, 14] does the source give for `O=C1CC(=O)CC(C2CC2c2cc(C(F)(F)F)cc(C(F)(F)F)c2)C1` (stereo not drawn) here?
**A.** ~3500 nM

**Q.** What about the “Different from control at 5 SD*” value [2] of the same compound?
**A.** YES

**Q.** For `CCCCCCCCCCC(=O)OC1=CC(=O)CC(c2cc(C(F)(F)F)cc(C(F)(F)F)c2)C1` (stereo not drawn), which EC50 [1, 14] is on record?
**A.** ~1500 nM

**Q.** Which EC50 ([1]; Rattus norvegicus, PC-12, read-out: PC12 Protection Assay (Average EC50)) does the source give for `CC(Oc1cc(C(F)(F)F)cc(C(F)(F)F)c1)C1CC(=O)CC(=O)C1` (stereo not drawn) here?
**A.** ~4000 nM

**Q.** What about the “Different from control at 5 SD*” value [2] of the same compound?
**A.** YES

**Q.** With `O=C1CC(=O)CC(c2cc(C(F)(F)F)cc(C(F)(F)F)c2)C1` [5-(3,5-bis(trifluoromethyl)phenyl)cyclohexane-1,3-dione] as the compound, how does the half-life ([3]; blood) read?
**A.** ~3.5 h

**Q.** What about the “blood brain barrier penetration” value ([3]; in vivo) of the same compound?
**A.** penetration of the blood brain barrier

**Q.** What about the “volume of distribution in vivo” value ([3]; in vivo) of the same compound?
**A.** surprisingly small volume of distribution

**Q.** What about the oral availability ([3]; in vivo, po) of the same compound?
**A.** good oral availability

**Q.** And the EC50 ([1]; Rattus norvegicus, PC-12; read-out: potency)?
**A.** ~1500 nM

**Q.** And the “protection of cultured PC12 cells / protective activity against mutant SOD1 toxicity” value ([1]; toxic effects of MG132)?
**A.** protects cultured PC12 cells from the toxic effects of MG132

**Q.** And the “protection of primary cortical neurons from MG132 toxicity” value ([2]; various concentrations, FIG. 6)?
**A.** no dose of this compound was effective in protecting the primary cortical neurons

**Q.** For `CC(C)C[C@@H](C=O)NC(=O)[C@H](CC(C)C)NC(=O)[C@H](CC(C)C)NC(=O)OCc1ccccc1` [MG132] (Cbz-Leu-Leu-Leu-aldehyde), which “cells containing protein aggregates after treatment” value ([4]; cells expressing G85R SOD1) is on record?
**A.** up to 75%

**Q.** And the “toxicity (cell survival)” value ([5]; 24 hr, any of the cell lines)?
**A.** no toxicity

**Q.** What about the “toxicity (cell survival)” value ([5]; after 48 hours) of the same compound?
**A.** selectively toxic to the G93A SOD1 cell line

**Q.** And the “sensitivity of G93A SOD1 cells relative to the other cell lines” value ([5]; G93A SOD1 vs no SOD1, wild type SOD1, G85R SOD1 cells)?
**A.** approximately 5 fold

**Q.** What about the IC50 ([5]; Rattus norvegicus, PC-12, read-out: IC50 (loss of cell viability)) of the same compound?
**A.** ~75 nM

**Q.** And the IC50 [6]?
**A.** ~400 nM

**Q.** What about the “cells with protein aggregates following treatment” value ([7]; cells expressing G93A mutant SOD1) of the same compound?
**A.** 75%

**Q.** What about the “protein aggregation after treatment” value [8] of the same compound?
**A.** no aggregation was observed

**Q.** With `CC(C)C[C@H](NC(=O)[C@H](Cc1ccccc1)NC(=O)c1cnccn1)B(O)O` [bortezomib] as the compound, how does the “sensitivity of PC12 cell lines to proteasome inhibitor, compared with MG132” value [5] read?
**A.** Qualitatively similar results

**Q.** For `O=C1CC(=O)CC(c2cc(C(F)(F)F)cc(C(F)(F)F)c2)C1` [drawing 215], which EC50 [1, 14] is on record?
**A.** ~1500 nM

**Q.** Which results are given for `O=C1CC(=O)CC(c2cc(C(F)(F)F)cc(C(F)(F)F)c2)C1` [drawing 217]?
**A.** Plasma Stability [9]: medium; solubility [10]: 500 µM (≈ 162 µg/mL); EC50 ([1]; Rattus norvegicus, PC-12; read-out: Potency (EC50)): 700 nM; Mouse Metabolic Potential [11]: low; half-life ([11]; liver microsomes, read-out: Mouse Metabolic Potential T1/2): > 3 h; Caco-2 predicted permeability [12]: high predicted permeability; Caco-2 A − B ([12]; A − B): 38 ×10⁻⁶ cm/s; Human Metabolic Potential [13]: low; half-life ([13]; liver microsomes, read-out: Human Metabolic Potential T1/2): > 3 h

**Q.** For `C[C@@H]1C[C@H]2O[C@@H]2/C=C\C=C\C(=O)Cc2c(Cl)c(O)cc(O)c2C(=O)O1` [radicicol], which “suppression of MG132-induced mutant SOD1 aggregation” value ([4]; G93A or G85R SOD1 cells, MG132 co-treatment) is on record?
**A.** aggregates are reduced

**Q.** What about the “proportion of cells with aggregates on co-treatment” value ([4]; PC12 cells expressing G85R or G93A mutant SOD1, MG132 co-treatment, 75% without) of the same compound?
**A.** 25%

**Q.** And the “formation of protein aggregates” value ([7]; G93A SOD1 cells, 100 nM MG132)?
**A.** reduced formation of protein aggregates

**Q.** What about the “cell viability of G93A SOD1 cells under MG132” value ([1]; co-treatment with 100 nM MG132) of the same compound?
**A.** increased cell viability in a dose-dependent manner

**Q.** And the “cell viability of G93A SOD1 cells under MG132” value ([1]; co-treatment with 100 nM MG132; listed as Radicicol)?
**A.** protects
